{"source": "patent US20230083973A1", "about": "“SUBSTITUTED CYCLOPROPYL-2,2'-BIP[…], ANALOGUES THEREOF, AND METHODS USING SAME” (priority 2019, published 2023)", "tested_on": "HBsAg", "assay": "HBsAg assay: inhibition of HBsAg in HepG2.2.15 cells (chemiluminescence immunoassay of supernatant)", "format": "cell-based, hepatitis B virus", "conditions": "read-out: sAg EC50; HepG2.2.15 cells; HBsAg in supernatant at day 6 after exposure to compound; 0.5% DMSO", "outline": "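Secreted HBsAg quantified by CLIA in day-6 supernatants of HepG2.2.15 cultures given compound dilutions at 0.5% final DMSO, with one compound/medium replenishment after 2–3 days. Dose-response fits gave EC50 (50% inhibition); viability checked separately by CellTiter-Glo.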"}
{"smiles": "Fc1cc(C2CC2c2cnc(-c3ncccn3)nc2)cc(N2CC3(CCOCC3)C2)c1F", "note": "(single isomer, unassigned) [Example 137, trans-2-(5-(2-([2,2′-Bipyrimidin]-5-yl)cyclopropyl)-2,3-difluorophenyl)-7-oxa-2-azaspiro[3.5]nonane]", "values": [{"measurement": "EC50", "value": 74, "unit": "nM"}]}
{"smiles": "O[C@H]1CCN(c2cc(C3CC3c3cnc(-c4ncccn4)nc3)cc(Cl)c2F)C1", "note": "(single isomer, unassigned) [Example 120]", "values": [{"measurement": "EC50", "value": 99, "unit": "nM"}]}
{"smiles": "COC1CN(c2cc(C3CC3c3cnc(-c4ncccn4)nc3)ccc2F)C1", "note": "(single isomer, unassigned) [Example 47, trans-5-(2-(4-Fluoro-3-(3-methoxyazetidin-1-yl)phenyl)cyclopropyl)-2,2′-bipyrimidine]", "values": [{"measurement": "EC50", "value": 370, "unit": "nM"}]}
{"smiles": "COc1cc(C2CC2c2cnc(-c3ncccn3)nc2)cnc1OC", "note": "(single isomer, unassigned) [Example 184, trans-5-(2-(5,6-Dimethoxypyridin-3-yl)cyclopropyl)-2,2′-bipyrimidine]", "values": [{"measurement": "EC50", "value": 1100, "unit": "nM"}]}
{"smiles": "Fc1cc(C2CC2c2cnc(-c3ncccn3)nc2)cc(N2CCC3(COC3)C2)c1F", "note": "(single isomer, unassigned) [Example 223, trans-6-(5-(2-([2,2′-Bipyrimidin]-5-yl)cyclopropyl)-2,3-difluorophenyl)-2-oxa-6-azaspiro[3.4]octane]", "values": [{"measurement": "EC50", "value": 10, "unit": "nM"}]}
{"smiles": "COCCOc1cc(C2CC2c2cnc(-c3ncccn3)nc2)cc(F)c1F", "note": "(single isomer, unassigned) [Example 135, trans-5-(2-(3,4-Difluoro-5-(2-methoxyethoxy)phenyl)cyclopropyl)-2,2′-bipyrimidine]", "values": [{"measurement": "EC50", "value": 22, "unit": "nM"}]}
{"smiles": "CC(=O)N1CC[C@@H](Nc2cc(C3CC3c3cnc(-c4ncccn4)nc3)cc(F)c2F)C1", "note": "(single isomer, unassigned) [Example 227]", "values": [{"measurement": "EC50", "value": 270, "unit": "nM"}]}
{"smiles": "COc1cc(C2CC2c2cnc(-c3ncccn3)nc2)c(-c2ccccc2)cc1Cl", "note": "(single isomer, unassigned) [Example 159, trans-5-(2-(5-Chloro-4-methoxy-[1,1′-biphenyl]-2-yl)cyclopropyl)-2,2′-bipyrimidine]", "values": [{"measurement": "EC50", "value": 49000, "unit": "nM"}]}
{"smiles": "COc1cc(C2CC2c2cnc(-c3ncccn3)nc2)cc(F)c1F", "note": "(single isomer, unassigned) [Example 84, trans-5-(2-(3,4-Difluoro-5-methoxyphenyl)cyclopropyl)-2,2′-bipyrimidine]", "values": [{"measurement": "EC50", "value": 240, "unit": "nM"}]}
{"smiles": "CNC(=O)c1cc(C2CC2c2cnc(-c3ncccn3)nc2)ccc1Cl", "note": "(single isomer, unassigned) [Example 201, trans-5-(2-([2,2′-Bipyrimidin]-5-yl)cyclopropyl)-2-chloro-N-methylbenzamide]", "values": [{"measurement": "EC50", "value": 9000, "unit": "nM"}]}
{"smiles": "Fc1cc(C2CC2c2cnc(-c3ncccn3)nc2)cc(N2CC(c3ccccc3)C2)c1F", "note": "(single isomer, unassigned) [Example 255, trans-5-(2-(3,4-Difluoro-5-(3-phenylazetidin-1-yl)phenyl)cyclopropyl)-2,2′-bipyrimidine]", "values": [{"measurement": "EC50", "value": 780, "unit": "nM"}]}
{"smiles": "OC1CN(c2cc(C3CC3c3cnc(-c4ncccn4)nc3)ccc2F)C1", "note": "(single isomer, unassigned) [Example 53, trans-1-(5-(2-([2,2′-Bipyrimidin]-5-yl)cyclopropyl)-2-fluorophenyl)azetidin-3-ol]", "values": [{"measurement": "EC50", "value": 500, "unit": "nM"}]}
